How the values were obtained:
[1] = biological target: hP2Y4 (Homo sapiens, UniProt P51582); experiment: Inhibition of UTP binding at hP2Y4; settings: read-out: hP2Y4 % inhibition of UTP binding at 100 μM, n = 3, mean ± SEM
Procedure: (§1) In table 2 inhibition data of selected examples at human P2Y receptor subtypes were collected. It can be seen that no compound was identified that inhibited P2Y receptors at high concentrations of 100 μM and 10 μM, respectively.

[2] = biological target: hP2Y12 (Homo sapiens, UniProt Q9H244); experiment: Inhibition of [3H]PSB-0413 binding at hP2Y12; settings: mean ± SEM, read-out: hP2Y12 % Inhibition of [^3H]PSB-0413 Binding at 10 μM, n = 3
hP2Y12, sequence (Q9H244 whole entry): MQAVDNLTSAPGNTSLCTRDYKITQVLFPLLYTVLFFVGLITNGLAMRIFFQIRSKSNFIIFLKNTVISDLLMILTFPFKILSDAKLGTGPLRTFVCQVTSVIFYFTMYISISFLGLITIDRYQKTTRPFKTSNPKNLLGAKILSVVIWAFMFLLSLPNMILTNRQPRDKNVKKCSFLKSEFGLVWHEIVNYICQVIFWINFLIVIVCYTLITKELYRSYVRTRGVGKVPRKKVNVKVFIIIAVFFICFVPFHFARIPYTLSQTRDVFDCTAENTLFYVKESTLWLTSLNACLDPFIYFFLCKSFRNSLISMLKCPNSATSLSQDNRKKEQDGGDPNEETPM
Procedure: as §1

[3] = biological target: T1, human NTPDase1 (Homo sapiens, UniProt P49961); experiment: NTPDase inhibition assay by capillary electrophoresis (CE), NTPDase1; format: biochemical; settings: CE method, ATP 320 μM, Km 17 μM, read-out: NTPDase1 Ki [μM] ± SEM
T1 sequence (P49961 1-510): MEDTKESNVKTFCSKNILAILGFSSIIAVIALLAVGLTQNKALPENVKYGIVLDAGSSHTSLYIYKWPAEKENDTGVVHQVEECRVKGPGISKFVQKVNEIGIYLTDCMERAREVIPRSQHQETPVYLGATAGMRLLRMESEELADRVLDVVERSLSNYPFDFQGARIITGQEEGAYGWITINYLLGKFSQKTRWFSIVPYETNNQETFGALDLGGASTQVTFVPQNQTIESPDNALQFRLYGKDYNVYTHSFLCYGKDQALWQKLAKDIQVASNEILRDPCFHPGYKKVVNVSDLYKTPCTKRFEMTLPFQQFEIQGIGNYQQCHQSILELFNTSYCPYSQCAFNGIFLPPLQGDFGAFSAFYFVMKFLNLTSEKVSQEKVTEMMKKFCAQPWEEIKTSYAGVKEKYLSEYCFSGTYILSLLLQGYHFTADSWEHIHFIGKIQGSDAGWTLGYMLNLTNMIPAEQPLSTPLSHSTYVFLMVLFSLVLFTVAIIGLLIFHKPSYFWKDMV
Procedure: The applied enzyme inhibition assay has been described (Iqbal J, Vollmayer P, Braun N, Zimmermann H, Müller C E. A capillary electrophoresis method for the characterization of ecto-nucleoside triphosphate diphosphohydrolases (NTPDases) and the analysis of inhibitors by in-capillary enzymatic microreaction. Purinergic Signalling 2005, 1, 349-358).
A. CE instrumentation: All experiments were carried out using a P/ACE MDQ capillary electrophoresis system (Beckman Instruments, Fullerton, Calif., USA) equipped with a UV detection system coupled with a diode-array detector (DAD). Data collection and peak area analysis were performed by the P/ACE MDQ software 32 KARAT obtained from Beckman Coulter. The capillary temperature was kept constant at 25° C. The temperature of the sample storing unit was also adjusted to 25° C. The electrophoretic separations were carried out using an eCAP polyacrylamide-coated fused-silica capillary [(30 cm (20 cm effective length)×50 μm internal diameter (I.D.)×360 μm outside diameter (O.D.), obtained from CS-Chromatographie (Langerwehe, Germany)]. The separation was performed using an applied current of −60 μA and a data acquisition rate of 8 Hz. Analytes were detected using direct UV absorbance at 210 nm. The capillary was conditioned by rinsing with water for 2 min and subsequently with buffer (phosphate 50 mM, pH 6.5) for 1 min. Sample injections were made at the cathodic side of the capillary.
B. NTPDase inhibition assay by capillary electrophoresis: Enzyme inhibition assays were carried out at 37° C. in a final volume of 100 μl. The reaction mixture contained 320 μM of ATP (substrate) in reaction buffer. The reaction buffer contained 140 mM NaCl, 5 mM KCl, 1 mM MgCl2, 2 mM CaCl2, and 10 mM Hepes, pH 7.4.
Different concentrations of inhibitors dissolved in DMSO or water (10 μl) were added and the reaction was initiated by the addition of 10 μl of the appropriately diluted recombinant or native human or rat NTPDase enzyme. […] The mixture (final volume 100 μl) was incubated for 15 min and terminated by heating at 99° C. for 4 min. Aliquots of the reaction mixture (50 μl) were then transferred to mini-CE vials and injected into the CE instrument under the conditions described above. 20 μM of UMP was used as internal standard. Inhibition of NTPDase was tested over a range of 6 to 8 concentrations of test compound spanning 3 orders of magnitude to determine K1 values. Each analysis was repeated two times (in triplicates) in two separate experiments. The Cheng-Prusoff equation was used to calculate the K1 values from the IC50 values, determined by the non-linear curve fitting program PRISM® 3.0 (GraphPad, San Diego, Calif., USA). In table 1K, values of selected compounds as inhibitors of human NTPDases are given.

[4] = biological target: rP2Y6 (Rattus norvegicus, UniProt Q63371); experiment: Inhibition of UDP binding at rP2Y6; settings: read-out: rP2Y6 % inhibition of UDP binding at 100 μM, n = 3, mean ± SEM
rP2Y6, sequence (Q63371 whole entry): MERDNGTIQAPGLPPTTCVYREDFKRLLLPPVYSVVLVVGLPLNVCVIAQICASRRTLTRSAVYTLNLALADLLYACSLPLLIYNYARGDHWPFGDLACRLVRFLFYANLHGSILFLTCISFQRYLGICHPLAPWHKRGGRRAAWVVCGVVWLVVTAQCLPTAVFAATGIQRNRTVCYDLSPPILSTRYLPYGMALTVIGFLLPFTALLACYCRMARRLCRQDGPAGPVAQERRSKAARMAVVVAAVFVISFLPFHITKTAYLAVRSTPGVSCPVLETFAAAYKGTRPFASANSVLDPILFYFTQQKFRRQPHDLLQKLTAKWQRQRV

[5] = biological target: T2, human NTPDase2 (Homo sapiens, UniProt Q9Y5L3); experiment: NTPDase inhibition assay by capillary electrophoresis (CE), NTPDase2; format: biochemical
T2 sequence (Q9Y5L3 1-495): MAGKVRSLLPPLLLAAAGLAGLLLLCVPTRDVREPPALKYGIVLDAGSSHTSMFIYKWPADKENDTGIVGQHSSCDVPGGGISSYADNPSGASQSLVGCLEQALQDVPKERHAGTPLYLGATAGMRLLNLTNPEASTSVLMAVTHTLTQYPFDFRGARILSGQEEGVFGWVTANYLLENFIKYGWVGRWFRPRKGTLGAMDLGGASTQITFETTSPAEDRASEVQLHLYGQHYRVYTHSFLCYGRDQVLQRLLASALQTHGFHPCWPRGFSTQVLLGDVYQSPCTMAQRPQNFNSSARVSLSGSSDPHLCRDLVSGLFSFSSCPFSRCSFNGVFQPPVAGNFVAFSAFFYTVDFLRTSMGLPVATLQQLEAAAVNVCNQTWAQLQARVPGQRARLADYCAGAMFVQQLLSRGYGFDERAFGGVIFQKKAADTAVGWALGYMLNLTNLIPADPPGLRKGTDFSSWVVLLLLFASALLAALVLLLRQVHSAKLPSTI

[6] = biological target: hP2Y2 (Homo sapiens, UniProt P41231); experiment: Inhibition of UTP binding at hP2Y2; settings: read-out: hP2Y2 % inhibition of UTP binding at 100 μM, n = 3, mean ± SEM
hP2Y2, sequence (P41231 whole entry): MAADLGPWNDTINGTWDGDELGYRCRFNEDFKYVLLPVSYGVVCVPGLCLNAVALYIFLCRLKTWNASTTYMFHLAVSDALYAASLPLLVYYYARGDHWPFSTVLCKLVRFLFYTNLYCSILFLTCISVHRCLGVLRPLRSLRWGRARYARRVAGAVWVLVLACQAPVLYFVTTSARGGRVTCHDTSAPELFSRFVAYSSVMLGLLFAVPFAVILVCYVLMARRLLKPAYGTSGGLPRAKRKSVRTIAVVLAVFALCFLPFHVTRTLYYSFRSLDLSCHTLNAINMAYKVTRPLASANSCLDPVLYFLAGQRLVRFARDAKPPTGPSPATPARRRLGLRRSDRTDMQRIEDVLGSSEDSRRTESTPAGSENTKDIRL
Procedure: as §1

[7] = biological target: T3, rat ecto-5′-nucleotidase (Rattus norvegicus, UniProt P21588); experiment: Ecto-5′-nucleotidase assay by capillary electrophoresis (CE); format: biochemical; settings: CE method, read-out: Rat Ecto-5′-NT Ki [μM] ± SEM
T3 construct: Catalytically active recombinant soluble glutathione-S-transferase/ecto-5′-nucleotidase fusion protein; GST (glutathione-S-transferase); made in house; host or cells: insect cells, baculovirus system
T3 sequence (P21588 29-551 limits assumed): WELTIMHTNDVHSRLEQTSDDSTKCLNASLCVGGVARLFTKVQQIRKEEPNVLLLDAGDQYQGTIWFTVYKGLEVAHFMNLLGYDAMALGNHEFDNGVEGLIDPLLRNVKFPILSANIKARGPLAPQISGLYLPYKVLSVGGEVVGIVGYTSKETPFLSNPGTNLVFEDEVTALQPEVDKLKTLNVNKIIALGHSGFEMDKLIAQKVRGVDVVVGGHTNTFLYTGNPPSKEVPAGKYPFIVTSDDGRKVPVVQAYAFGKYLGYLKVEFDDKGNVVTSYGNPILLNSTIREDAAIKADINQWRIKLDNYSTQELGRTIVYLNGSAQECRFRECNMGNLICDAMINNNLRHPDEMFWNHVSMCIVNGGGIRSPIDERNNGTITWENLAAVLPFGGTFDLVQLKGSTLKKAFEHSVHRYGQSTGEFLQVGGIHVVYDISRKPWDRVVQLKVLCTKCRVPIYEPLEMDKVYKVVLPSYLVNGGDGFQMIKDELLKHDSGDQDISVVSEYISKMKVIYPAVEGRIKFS
Procedure: Catalytically active recombinant soluble glutathione-S-transferase/ecto-5′-nucleotidase fusion protein was expressed in insect cells using the baculovirus system and purified by affinity chromatography using agarose-coupled GSH as previously described [Servos, J., Reilander, H., Zimmermann, H. Drug. Dev. Res. 1998, 45, 269-276]
Enzyme assays were carried out at 37° C. in a final volume of 100 μl. The reaction buffer consisted of 10 mM Hepes (2.38 g/L), 2 mM MgCl2 […], and 1 mM CaCl2 (0.11 g/L), brought to pH 7.4 by adding the appropriate amount of 1-N aqueous HCl solution. The reaction was initiated by the addition of 10 μl of the appropriately diluted enzyme (0.52 μg). The reaction mixture was incubated for 10 min and terminated by heating at 99° C. for 5 min. Nucleosides and nucleotides were stable under these conditions. Aliquots of the reaction mixture (50 μl) were then transferred to mini-CE vials containing 50 μl of the internal standard uridine (final concentration 20 μM). In the absence of an internal standard similar results were obtained. Each analysis was repeated twice (duplicates) in three separate experiments.
CE separations were carried out using a P/ACE MDQ system (Beckman Coulter Instruments, Fullerton, Calif., USA) equipped with a DAD detection system. The electrophoretic separations were carried out using an eCAP fused-silica capillary [30 cm (20 cm effective length)×75 μm internal diameter (I.D), ×375 μm outside diameter (O.D) obtained from Beckman Coulter]. The following conditions were applied: T=25° C., λmax=260 nm, voltage=15 kV, running buffer 40 mM sodium borate buffer, pH 9.1. The capillary was washed with 0.1 M NaOH for 2 min, deionized water for 1 min, and running buffer for 1 min before each injection. Injections were made by applying 0.1 psi of pressure to the sample solution for 30 s. The amount of adenosine formed was determined. The CE instrument was fully controlled through a personal computer, which operated with the analysis software 32 KARAT obtained from Beckman Coulter. Electropherograms were evaluated using the same software.

hP2Y4, sequence (P51582 whole entry): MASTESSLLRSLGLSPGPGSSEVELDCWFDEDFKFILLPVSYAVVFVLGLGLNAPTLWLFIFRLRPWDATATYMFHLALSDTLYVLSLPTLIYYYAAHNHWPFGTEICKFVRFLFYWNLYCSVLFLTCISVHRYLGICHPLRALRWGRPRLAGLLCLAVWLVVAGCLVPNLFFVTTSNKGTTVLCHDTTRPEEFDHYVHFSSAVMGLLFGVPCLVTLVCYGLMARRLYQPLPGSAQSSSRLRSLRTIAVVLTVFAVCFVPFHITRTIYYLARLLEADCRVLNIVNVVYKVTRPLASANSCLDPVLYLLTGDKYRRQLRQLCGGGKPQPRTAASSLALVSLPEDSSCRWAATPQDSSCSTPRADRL

| SMILES | Ki [3] | Ki [7] | further results |
| --- | --- | --- | --- |
| CCOP(=O)(OCC)C(NC(=O)CNC(=O)[C@H]1O[C@@H](n2ccc(=O)[nH]c2=O)C(O)C1O)P(=O)(OCC)OCC (stereo in doubt) [Compound 10, 2-[(2S,3R,4S,5R)-5-(2,4-Dioxo-3,4-dihydropyrimidin-1(2H)-yl)-3,4-dihydroxy-tetrahydrofurane-2-carboxamido]ethaneamidomethylenediphosphonic acid tetraethylester] | 93 ± 14 µM |  | inhibition at 100 µM [1]: 34 ± 15%; inhibition at 10 µM [2]: 2 ± 5%; inhibition at 100 µM [4]: 8 ± 14%; Ki [5]: ~165 µM; inhibition at 1000 µM ([5]; read-out: NTPDase2 inhibition (%) at 1 mM): 54%; inhibition at 100 µM [6]: -38 ± 11% |
| O=C(CNC(=O)[C@H]1O[C@@H](n2ccc(=O)[nH]c2=O)C(O)C1O)Nc1ccc(CP(=O)(O)O)cc1 (stereo in doubt) [Compound 21, 4-[2-((2S,3R,4S,5R)-5-(2,4-Dioxo-3,4-dihydropyrimidine-1(2H)-yl)-3,4-dihydroxy-tetrahydrofurane-2-carboxamido)ethaneamido]benzylphosphonic acid] |  | 6.47 ± 1.31 µM |  |
| O=C(O)CCC(NC(=O)CCNC(=O)[C@H]1O[C@@H](N2CCC(=O)NC2=O)[C@H](O)[C@@H]1O)C(=O)O (stereo partly drawn) [Compound 14, 2-[3-((2S,3R,4S,5R)-5-(2,4-Dioxo-3,4,5,6-tetrahydropyrimidin-1(2H)-yl)-3,4-dihydroxy-tetrahydrofurane-2-carboxamido)propaneamido]-(S)-glutamic acid] | 10.8 ± 1 µM | 0.78 ± 0.18 µM | inhibition at 10 µM [2]: 6 ± 4% |
| CCOC(=O)C(CC(=O)O)NC(=O)CCCNC(=O)[C@H]1O[C@@H](n2ccc(=O)[nH]c2=O)[C@H](O)[C@@H]1O (stereo partly drawn) [Compound 15, 2-[4-((2S,3R,4S,5R)-5-(2,4-Dioxo-3,4-dihydropyrimidin-1(2H)-yl)-3,4-dihydroxy-tetrahydrofurane-2-carboxamido)butaneamido]-(S)-aspartic acid-1-ethylester] | 29 ± 4 µM |  | inhibition at 100 µM [6]: -28 ± 11% |
| O=C(O)C[C@H](NC(=O)CCCNC(=O)[C@H]1O[C@@H](N2CCC(=O)NC2=O)[C@H](O)[C@@H]1O)C(=O)O [Compound 23, 2-[4-((2S,3R,4S,5R)-5-(2,4-Dioxo-3,4,5,6-tetrahydropyrimidine-1(2H)-yl)-3,4-dihydroxy-tetrahydrofurane-2-carboxamido)butaneamido]-(S)-aspartic acid] |  | 0.18 ± 0.014 µM |  |
| O=C(O)CC[C@H](NC(=O)CNC(=O)[C@H]1O[C@@H](N2CCC(=O)NC2=O)[C@H](O)[C@@H]1O)C(=O)O [Compound 24, 2-[2-((2S,3R,4S,5R)-5-(2,4-Dioxo-3,4,5,6-dihydropyrimidine-1(2H)-yl)-3,4-dihydroxy-tetrahydrofurane-2-carboxamido)ethaneamido]-(S)-glutamic acid] |  | 34.3 ± 0.2 µM |  |
| Cc1cn([C@@H]2O[C@H](C(=O)NCCCC(=O)NC(CC(=O)O)C(=O)O)[C@@H](O)[C@H]2O)c(=O)[nH]c1=O (stereo partly drawn) [Compound 25, 2-[4-((2S,3R,4S,5R)-5-(2,4-Dioxo-5-methylpyrimidin-1(2H)-yl)-3,4-dihydroxy-tetrahydrofurane-2-carboxamido)butaneamido]-(S)-aspartic acid] |  | 1.61 ± 0.62 µM |  |

From US20100204182A1, “ECTONUCLEOTIDASE INHIBITORS” (RHEINISCHE FRIEDRICH-WILHELMS-UNIVERSITAT BONN, priority 2006, published 2010)
